Measured values from patent publication US10173971B2, “Picolinamides with fungicidal activity” (DOW AGROSCIENCES LLC, priority 2014, dated 2019).
Where two headings read alike, the source gives them in different places.

Legend:
Zymoseptoria tritici = experiment: Fungicidal activity: leaf blotch of wheat (SEPTTR), wheat seedlings, booth sprayer to run-off or track spray; format: in vivo; details: Low-Volume Cereal Activity at 121.5 g/H
Puccinia triticina = experiment: Fungicidal activity: wheat brown rust (PUCCRT), wheat seedlings, booth sprayer to run-off or track spray; format: in vivo; details: Low-Volume Cereal Activity at 121.5 g/H
[1] = 24 h, 1 Day Protectant, read-out: SEPTTR 1DP
[2] = 72 h, 3 Day Curative, read-out: SEPTTR 3DC
[3] = 24 h, 1 Day Protectant, read-out: PUCCRT 1DP
[4] = 72 h, 3 Day Curative, read-out: PUCCRT 3DC

Structure (SMILES)	pest or weed control at 121.5 g/ha (Zymoseptoria tritici; [1]) [%]	pest or weed control at 121.5 g/ha (Zymoseptoria tritici; [2]) [%]	pest or weed control at 121.5 g/ha (Puccinia triticina; [3]) [%]	pest or weed control at 121.5 g/ha (Puccinia triticina; [4]) [%]
COC[C@@H](Cc1ccc(F)cc1)[C@H](C)OC(=O)[C@H](C)NC(=O)c1nccc(OC)c1OC(C)=O [compound 231]	0 to 80	0 to 80	0 to 80	0 to 80
COc1ccnc(C(=O)N[C@@H](C)C(=O)O[C@@H](C)[C@H](Cc2ccc(F)cc2)C(C)(C)OC)c1OC(C)=O [compound 232]	0 to 80	0 to 80	0 to 80	–
CCOCC(=O)OCOc1c(OC)ccnc1C(=O)N[C@@H](C)C(=O)O[C@@H](C)[C@@H](COCc1ccccc1)Cc1ccc(F)cc1 [compound 233]	0 to 80	0 to 80	80 to 100	0 to 80
CCOCC(=O)OCOc1c(OC)ccnc1C(=O)N[C@@H](C)C(=O)O[C@@H](C)[C@@H](COCc1ccccc1)Cc1ccccc1 [compound 234]	0 to 80	80 to 100	80 to 100	80 to 100
CCOCC(=O)OCOc1c(OC)ccnc1C(=O)N[C@@H](C)C(=O)O[C@@H](C)[C@H](Cc1ccc(F)cc1)C(C)(C)OCc1ccccc1 [compound 235]	80 to 100	0 to 80	80 to 100	0 to 80
CCOCC(=O)OCOc1c(OC)ccnc1C(=O)N[C@@H](C)C(=O)O[C@@H](C)[C@H](Cc1ccccc1)C(C)(C)OCc1ccccc1 [compound 236]	80 to 100	0 to 80	80 to 100	0 to 80
CCOCC(=O)OCOc1c(OC)ccnc1C(=O)N[C@@H](C)C(=O)O[C@@H](C)[C@@H](COC)Cc1ccc(F)cc1 [compound 237]	0 to 80	0 to 80	80 to 100	80 to 100
CCOCC(=O)OCOc1c(OC)ccnc1C(=O)N[C@@H](C)C(=O)O[C@@H](C)[C@H](Cc1ccc(F)cc1)C(C)(C)OC [compound 238]	0 to 80	0 to 80	80 to 100	0 to 80
COc1ccnc(C(=O)N[C@@H](C)C(=O)O[C@@H](C)[C@@H](COCc2ccccc2)Cc2ccc(F)cc2)c1OCOC(C)=O [compound 239]	80 to 100	0 to 80	80 to 100	0 to 80
COc1ccnc(C(=O)N[C@@H](C)C(=O)O[C@@H](C)[C@H](Cc2ccc(F)cc2)C(C)(C)OCc2ccccc2)c1OCOC(C)=O [compound 241]	80 to 100	80 to 100	80 to 100	0 to 80
COC[C@@H](Cc1ccc(F)cc1)[C@H](C)OC(=O)[C@H](C)NC(=O)c1nccc(OC)c1OCOC(C)=O [compound 243]	0 to 80	0 to 80	80 to 100	80 to 100
COc1ccnc(C(=O)N[C@@H](C)C(=O)O[C@@H](C)[C@H](Cc2ccc(F)cc2)C(C)(C)OC)c1OCOC(C)=O [compound 244]	0 to 80	80 to 100	80 to 100	80 to 100
COc1ccnc(C(=O)N[C@@H](C)C(=O)O[C@@H](C)[C@H](Cc2ccccc2)C(C)(C)OC)c1OCOC(C)=O [compound 245]	–	0 to 80	80 to 100	80 to 100
COc1ccnc(C(=O)N[C@@H](C)C(=O)O[C@@H](C)[C@@H](COCc2ccc(F)cc2)Cc2ccc(F)cc2)c1OC(C)=O [compound 246]	80 to 100	0 to 80	0 to 80	0 to 80
COc1ccnc(C(=O)N[C@@H](C)C(=O)O[C@@H](C)[C@H](Cc2ccc(F)cc2)C(C)(C)OCc2ccc(F)cc2)c1OC(C)=O [compound 247]	0 to 80	0 to 80	0 to 80	–
COc1ccnc(C(=O)N[C@@H](C)C(=O)O[C@@H](C)[C@@H](COCCC(C)C)Cc2ccccc2)c1OC(C)=O [compound 248]	–	0 to 80	80 to 100	0 to 80
COc1ccnc(C(=O)N[C@@H](C)C(=O)O[C@@H](C)[C@@H](COCc2ccc(F)cc2)Cc2ccc(F)cc2)c1OCOC(C)=O [compound 249]	80 to 100	0 to 80	80 to 100	0 to 80
COc1ccnc(C(=O)N[C@@H](C)C(=O)O[C@@H](C)[C@H](Cc2ccc(F)cc2)C(C)(C)OCc2ccc(F)cc2)c1OCOC(C)=O [compound 250]	0 to 80	–	0 to 80	0 to 80

Structure (SMILES)	pest or weed control at 121.5 g/ha (Zymoseptoria tritici; [1]) [%]	pest or weed control at 121.5 g/ha (Zymoseptoria tritici; [2]) [%]	pest or weed control at 121.5 g/ha (Puccinia triticina; [3]) [%]	pest or weed control at 121.5 g/ha (Puccinia triticina; [4]) [%]
COc1ccnc(C(=O)N[C@@H](C)C(=O)O[C@@H](C)[C@@H](COCCC(C)C)Cc2ccc(F)cc2)c1OCOC(C)=O [compound 251]	0 to 80	80 to 100	80 to 100	0 to 80
COc1ccnc(C(=O)N[C@@H](C)C(=O)O[C@@H](C)[C@@H](COCCC(C)C)Cc2ccccc2)c1OCOC(C)=O [compound 252]	80 to 100	80 to 100	80 to 100	80 to 100
CCOCC(=O)OCOc1c(OC)ccnc1C(=O)N[C@@H](C)C(=O)O[C@@H](C)[C@@H](COCc1ccc(F)cc1)Cc1ccc(F)cc1 [compound 253]	80 to 100	0 to 80	80 to 100	0 to 80
COc1ccnc(C(=O)N[C@@H](C)C(=O)O[C@@H](C)[C@H](Cc2ccccc2)C(C)(C)Oc2ccc(Cl)cc2Cl)c1OCOC(C)=O [compound 254]	80 to 100	80 to 100	80 to 100	0 to 80
C=C(C)[C@@H](Cc1ccccc1)[C@H](C)OC(=O)[C@H](C)NC(=O)c1nccc(OC)c1OCOC(C)=O [compound 255]	0 to 80	80 to 100	80 to 100	80 to 100
CCCOC(C)(C)[C@@H](Cc1ccc(OC)cc1)[C@H](C)OC(=O)[C@H](C)NC(=O)c1nccc(OC)c1OCOC(C)=O [compound 257]	–	0 to 80	80 to 100	–
CCCOC[C@@H](Cc1ccc(OC)c(Cc2ccccc2)c1)[C@H](C)OC(=O)[C@H](C)NC(=O)c1nccc(OC)c1OCOC(C)=O [compound 258]	0 to 80	0 to 80	0 to 80	0 to 80
CCCOC(C)(C)[C@@H](Cc1ccc(OC)c(Cc2ccccc2)c1)[C@H](C)OC(=O)[C@H](C)NC(=O)c1nccc(OC)c1OCOC(C)=O [compound 259]	–	0 to 80	0 to 80	–
COc1ccnc(C(=O)N[C@@H](C)C(=O)OC(C)C(Cc2ccccc2)Cc2ccccc2)c1OC(C)=O (stereo partly shown) [compound 260]	80 to 100	0 to 80	80 to 100	0 to 80
COc1ccnc(C(=O)N[C@H](C(=O)OC(C)C(Cc2ccccc2)Cc2ccccc2)C(C)C)c1OC(C)=O (stereo partly shown) [compound 261]	0 to 80	0 to 80	80 to 100	0 to 80
CC[C@H](NC(=O)c1nccc(OC)c1OC(C)=O)C(=O)OC(C)C(Cc1ccccc1)Cc1ccccc1 (stereo partly shown) [compound 262]	0 to 80	–	80 to 100	0 to 80
COc1ccnc(C(=O)N[C@@H](C)C(=O)OC(C)C(Cc2cccc(F)c2)Cc2cccc(F)c2)c1OC(C)=O (stereo partly shown) [compound 263]	0 to 80	0 to 80	0 to 80	0 to 80
COc1ccnc(C(=O)N[C@@H](C)C(=O)OC(C)C(Cc2ccc(F)cc2)Cc2ccc(F)cc2)c1OC(C)=O (stereo partly shown) [compound 264]	0 to 80	–	0 to 80	–
COc1ccnc(C(=O)N[C@@H](C)C(=O)OC(C)C(Cc2ccccc2)Cc2ccccc2)c1OCOC(C)=O (stereo partly shown) [compound 265]	80 to 100	0 to 80	80 to 100	0 to 80
COc1ccnc(C(=O)N[C@H](C(=O)OC(C)C(Cc2ccccc2)Cc2ccccc2)C(C)C)c1OCOC(C)=O (stereo partly shown) [compound 266]	0 to 80	–	80 to 100	0 to 80
COc1ccnc(C(=O)N[C@@H](C)C(=O)OC(C)C(Cc2cccc(F)c2)Cc2cccc(F)c2)c1OCOC(C)=O (stereo partly shown) [compound 267]	0 to 80	0 to 80	0 to 80	–
COc1ccnc(C(=O)N[C@@H](C)C(=O)OC(C)C(Cc2ccc(F)cc2)Cc2ccc(F)cc2)c1OCOC(C)=O (stereo partly shown) [compound 268]	0 to 80	0 to 80	80 to 100	80 to 100
CC[C@H](NC(=O)c1nccc(OC)c1OCOC(C)=O)C(=O)OC(C)C(Cc1ccccc1)Cc1ccccc1 (stereo partly shown) [compound 269]	80 to 100	80 to 100	80 to 100	0 to 80
